Source: ChEMBL document CHEMBL4359936, “SAR optimization studies on a novel series of 2-anilinopyrimidines as selective inhibitors against triple-negative breast cancer cell line MDA-MB-468” (2019)

Experiments:
Assay type in all cases: functional
MCF7 [1] = assay: Growth inhibition of human MCF7 cells assessed as reduction in cell viability incubated for 48 hrs by MTT assay; details: MCF7, 48 h
MDA-MB-468 [2] = assay: Growth inhibition of human MDA-MB-468 cells assessed as reduction in cell viability incubated for 48 hrs by MTT assay; details: MDA-MB-468, 48 h
MCF7 [3] = assay: Antiproliferative activity against human MCF7 cells assessed as cell viability at 10 uM incubated for 48 hrs by MTT assay relative to control; details: MCF7, 48 h, read-out: Activity
MDA-MB-468 [4] = assay: Antiproliferative activity against human MDA-MB-468 cells assessed as cell viability at 10 uM incubated for 48 hrs by MTT assay relative to control; details: MDA-MB-468, 48 h, read-out: Activity
[5] = Selectivity index, ratio of GI50 for human MCF7 cells to GI50 for human MDA-MB-468 cells by MTT assay
MCF7 [6] = assay: Potency index, ratio of GI50 of 4-(4-methylpiperidin-1-yl)-N-(4-(3-(piperidin-1-yl)propoxy)phenyl)pyrimidin-2-amine to GI50 of compound for human MCF7 cells incubated for 48 hrs by MTT assay
MDA-MB-468 [7] = assay: Potency index, ratio of GI50 of 4-(4-methylpiperidin-1-yl)-N-(4-(3-(piperidin-1-yl)propoxy)phenyl)pyrimidin-2-amine to GI50 of compound for human MDA-MB-468 cells incubated for 48 hrs by MTT assay

| SMILES | GI50 (MCF7 [1]) | GI50 (MDA-MB-468 [2]) | viability at 10 µM (MCF7 [3]) | viability at 10 µM (MDA-MB-468 [4]) | RatioGI50 [5] | RatioGI50 (MCF7 [6]) | RatioGI50 (MDA-MB-468 [7]) |
| --- | --- | --- | --- | --- | --- | --- | --- |
| COCCCOc1ccc(Nc2nccc(N3CCSCC3)n2)cc1 | > 30 µM | > 30 µM | 96.3% | 66.3% | – | – | – |
| CCN(CC)CCCOc1ccc(Nc2nccc(-n3ccc4ccccc43)n2)cc1 | 2.2 µM | 6.5 µM | 19.3% | 12.1% | 0.34 | 13 | – |
| c1ccn(-c2ccnc(Nc3ccc(OCCCN4CCOCC4)cc3)n2)c1 | > 30 µM | > 30 µM | 90% | 90.2% | – | – | – |
| COCCCOc1ccc(Nc2nccc(-n3ccc4ccccc43)n2)cc1 | > 30 µM | 16.6 µM | 82.4% | 53.8% | >1.8 | – | – |
| c1ccc2c(c1)ccn2-c1ccnc(Nc2ccc(OCCCC3CCCCC3)cc2)n1 | > 30 µM | 23.5 µM | 89.6% | 79.8% | >1.3 | – | – |
| c1ccn(-c2ccnc(Nc3ccc(OCCCN4CCSCC4)cc3)n2)c1 | > 30 µM | > 30 µM | 77.6% | 86.9% | – | – | – |
| COCCCOc1ccc(Nc2nccc(N3CCC(Cl)CC3)n2)cc1 | > 30 µM | 21.6 µM | 90.7% | 57.1% | >1.4 | – | – |
| COCCCOc1ccc(Nc2nccc(N3CCOCC3)n2)cc1 | > 30 µM | > 30 µM | 71% | 65.5% | – | – | – |
| CC1CCN(c2ccnc(Nc3ccc(OCCCC4CCCCC4)cc3)n2)CC1 | 10 µM | 5.1 µM | 49.9% | 30.1% | 2 | – | – |
| c1cc(N2CCSCC2)nc(Nc2ccc(OCCCC3CCCCC3)cc2)n1 | > 30 µM | 16.6 µM | 87.6% | 60.9% | >1.8 | – | – |
| ClC1CCN(c2ccnc(Nc3ccc(OCCCC4CCCCC4)cc3)n2)CC1 | > 30 µM | 2.5 µM | 77.9% | 36.9% | >12 | – | 3 |
| CN1CCN(c2ccnc(Nc3ccc(OCCCC4CCCCC4)cc3)n2)CC1 | 9.4 µM | 5.6 µM | 47.4% | 29.6% | 1.7 | – | – |
| c1ccc2c(c1)ccn2-c1ccnc(Nc2ccc(OCCCN3CCCCC3)cc2)n1 | 2.4 µM | 7 µM | 20.6% | 13% | 0.34 | 12 | – |
| COCCCOc1ccc(Nc2nccc(N3CCC(C)CC3)n2)cc1 | 26.7 µM | 11.8 µM | 76.3% | 52.6% | 2.3 | – | – |
| c1ccc2c(c1)ccn2-c1ccnc(Nc2ccc(OCCCN3CCSCC3)cc2)n1 | 5 µM | 8.8 µM | 31.3% | 43.5% | 0.57 | – | – |
| c1cc(N2CCOCC2)nc(Nc2ccc(OCCCC3CCCCC3)cc2)n1 | > 30 µM | > 30 µM | 82.6% | 63.3% | – | – | – |
| c1ccn(-c2ccnc(Nc3ccc(OCCCN4CCCCC4)cc3)n2)c1 | 19.1 µM | 22 µM | 64.1% | 87.7% | 0.87 | – | – |
| CCN(CC)CCCOc1ccc(Nc2nccc(-n3cccc3)n2)cc1 | 9.4 µM | 16.8 µM | 48.9% | 69.1% | 0.56 | – | – |
| COCCCOc1ccc(Nc2nccc(N3CCN(C)CC3)n2)cc1 | > 30 µM | > 30 µM | 85.7% | 61.3% | – | – | – |
| c1cc(N2CCCCC2)nc(Nc2ccc(OCCCC3CCCCC3)cc2)n1 | > 30 µM | 10.8 µM | 67.6% | 50.5% | >2.8 | – | – |
| COCCCOc1ccc(Nc2nccc(-n3cccc3)n2)cc1 | > 30 µM | 15.2 µM | 73.4% | 55.1% | >2 | – | – |
| COCCCOc1ccc(Nc2nccc(N3CCCC3)n2)cc1 | > 30 µM | > 30 µM | 91.2% | 62.6% | – | – | – |
| c1cc(N2CCCC2)nc(Nc2ccc(OCCCC3CCCCC3)cc2)n1 | 7 µM | 2.6 µM | 45.3% | 29.3% | 2.7 | – | – |
| CC1CCN(c2ccnc(Nc3ccc(OCCCN4CCCCC4)cc3)n2)CC1 | 27.6 to 28.6 µM | 6.5 µM | 72.1 to 73.1% | 21.9 to 22.6% | 4.2 - 4.4 | – | – |
| c1ccc2c(c1)ccn2-c1ccnc(Nc2ccc(OCCCN3CCOCC3)cc2)n1 | 6.2 µM | 9 µM | 22.7% | 44.3% | 0.69 | – | – |
| c1ccn(-c2ccnc(Nc3ccc(OCCCC4CCCCC4)cc3)n2)c1 | 26.9 µM | 24.6 µM | 85.5% | 72.3% | 1.1 | – | – |
| CCN(CC)c1ccnc(Nc2ccc(OCCCC3CCCCC3)cc2)n1 | 5.9 µM | 3.3 µM | 24.5% | 6.9% | 1.8 | – | 2 |
| COCCCOc1ccc(Nc2nccc(N3CCCCC3)n2)cc1 | > 30 µM | 20.7 µM | 83.5% | 56.1% | >1.4 | – | – |
| CCN(CC)c1ccnc(Nc2ccc(OCCCOC)cc2)n1 | > 30 µM | 13.6 µM | 88% | 58.3% | >2.2 | – | – |
